Reference: ChEMBL document CHEMBL5726133, “Dihydropyrrolopyridine inhibitors of ROR-gamma” (2017)

molecular target: T1, Nuclear receptor ROR-gamma (Homo sapiens, UniProt P51449); test: Binding Assay: Compounds of the present invention were tested for ability to bind to RORγ in a cell-free competition assay with commercially available radio-ligand (RL), 25-hydroxy [26,27-3H]-cholesterol (PerkinElmer, Cat. #NET674250UC), for a ligand binding site on a recombinant RORγ Ligand Binding Domain (LBD) protein expressed as a 6×His-Glutathione-S-Transferase (GST) fusion. […] The plate was shaken at 700 rpm for 20 min and incubated for 10 min at rt, after which 40 μL of poly-Lys YSi SPA beads (PerkinElmer, Cat. #RPNQ0010) were added to achieve 50 μg of the beads per well. The plate was incubated on an orbital shaker for 20 min and then for 10 min without agitation at rt. SPA signal for tritium beta radiation was registered on PerkinElmer Microbeta plate reader.
T1 sequence (P51449 whole entry): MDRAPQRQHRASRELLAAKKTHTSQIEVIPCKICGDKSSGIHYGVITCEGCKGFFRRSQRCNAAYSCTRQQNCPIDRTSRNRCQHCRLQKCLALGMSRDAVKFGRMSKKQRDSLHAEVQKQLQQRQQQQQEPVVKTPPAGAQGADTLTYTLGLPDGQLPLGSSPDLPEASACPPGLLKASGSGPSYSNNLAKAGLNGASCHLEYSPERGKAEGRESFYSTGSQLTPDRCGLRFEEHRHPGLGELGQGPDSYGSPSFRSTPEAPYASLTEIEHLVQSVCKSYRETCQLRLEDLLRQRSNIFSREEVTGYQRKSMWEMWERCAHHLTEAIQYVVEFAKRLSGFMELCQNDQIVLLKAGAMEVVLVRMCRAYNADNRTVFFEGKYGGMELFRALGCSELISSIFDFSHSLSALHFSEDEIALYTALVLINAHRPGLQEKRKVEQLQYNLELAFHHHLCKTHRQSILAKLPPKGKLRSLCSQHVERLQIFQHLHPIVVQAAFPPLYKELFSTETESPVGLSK

Structure (SMILES) | Ki
CCS(=O)(=O)c1ccc(C2(NC(=O)c3cnc4c(c3)CN(Cc3ccc(C(F)(F)F)cc3)[C@H]4C(C)C)CC2)nc1 | < 100 nM
CCS(=O)(=O)c1ccc(CNC(=O)c2cnc3c(c2)C(=O)N(Cc2ccc(Cl)cc2)[C@H]3C(C)C)cc1 | < 100 nM
CCS(=O)(=O)c1ccc(CC(=O)Nc2cnc3c(c2)CN(Cc2ccc(Cl)cc2)[C@H]3C(C)C)cc1 | < 100 nM
